Measured values reported in patent US20190365710A1, “METHODS OF TREATING CANCER” (GlaxoSmithKline Intellectual Property Development Limited, priority 2016, published 2019).
Like-named read-outs stand apart in the source and are kept apart here.

What was measured:
[1] = system: Prostate cancer cell lines; experiment: 6-day growth-death assay (Cell Titer Glo); type: cell-based, human; conditions: 4 cell lines
Breast cancer cell lines = experiment: 6-day growth-death assay (Cell Titer Glo); conditions: for IC50: Homo sapiens
Method: Cell lines representing triple negative breast cancer (TNBC) are shown in orange; other subtypes are in blue.
The growth of all cell lines was evaluated over time across a wide range of seeding densities to identify conditions that permitted proliferation throughout the entire 6-day assay. Cells were plated at the optimal seeding density and after overnight incubation, a 20-point 2-fold titration of compound was added and plates were incubated for 6 days. A replicate plate of cells was harvested at the time of compound addition to quantify the starting number of cells (To). Values obtained after the 6 day treatment were expressed as a function of the To value and plotted against compound concentration. The To value was normalized to 100% and represents the number of cells at the time of compound addition. The data were fit with a 4 parameter equation to generate a concentration response curve and the growth IC50 (gIC50) was determined. The gIC50 is the midpoint of the ‘growth window’, the difference between the number of cells at the time of compound addition (T0) and the number of cells after 6 days (DMSO control). The growth-death assay can be used to quantify the net population change, clearly defining cell death (cytotoxicity) as fewer cells compared to the number at the time of compound addition (T0).

[2] = system: Toledo (human DLBCL) xenograft; experiment: Toledo xenograft tumor growth; conditions: for Body weight Difference (vs. vehicle): Toledo (DLBCL)
Lymphoma cell lines = experiment: 6-day growth-death assay (Cell Titer Glo); type: cell-based, human; conditions: for IC50: Homo sapiens, read-out: Median gIC50, Lymphoma
Toledo = system: Toledo
Method: (§1) FIG. 18: Propidium iodide FACS analysis of cell cycle in human lymphoma cell lines. […] Data represents the average±SEM of biological replicates, n=2.
(§2) By day 7, an increase in the sub-G1 population was apparent at concentrations ≥100 nM.

U2932 = conditions: only at this concentration
Method: as §1, §2

OCI-Ly1 = conditions: only at this concentration
Method: as §1, §2

PRMT9 = PRMT9 (Homo sapiens, UniProt Q6P2P2); experiment: PRMT family radioactive assay; type: biochemical; conditions: Type II; 60 minute SAM:Enzyme:Compound A preincubation
PRMT5/MEP50 = PRMT5/MEP50 (Homo sapiens, UniProt O14744); experiment: PRMT family radioactive assay; type: biochemical; conditions: Type II; 60 minute SAM:Enzyme:Compound A preincubation
Chain of PRMT5/MEP50 (O14744 whole entry): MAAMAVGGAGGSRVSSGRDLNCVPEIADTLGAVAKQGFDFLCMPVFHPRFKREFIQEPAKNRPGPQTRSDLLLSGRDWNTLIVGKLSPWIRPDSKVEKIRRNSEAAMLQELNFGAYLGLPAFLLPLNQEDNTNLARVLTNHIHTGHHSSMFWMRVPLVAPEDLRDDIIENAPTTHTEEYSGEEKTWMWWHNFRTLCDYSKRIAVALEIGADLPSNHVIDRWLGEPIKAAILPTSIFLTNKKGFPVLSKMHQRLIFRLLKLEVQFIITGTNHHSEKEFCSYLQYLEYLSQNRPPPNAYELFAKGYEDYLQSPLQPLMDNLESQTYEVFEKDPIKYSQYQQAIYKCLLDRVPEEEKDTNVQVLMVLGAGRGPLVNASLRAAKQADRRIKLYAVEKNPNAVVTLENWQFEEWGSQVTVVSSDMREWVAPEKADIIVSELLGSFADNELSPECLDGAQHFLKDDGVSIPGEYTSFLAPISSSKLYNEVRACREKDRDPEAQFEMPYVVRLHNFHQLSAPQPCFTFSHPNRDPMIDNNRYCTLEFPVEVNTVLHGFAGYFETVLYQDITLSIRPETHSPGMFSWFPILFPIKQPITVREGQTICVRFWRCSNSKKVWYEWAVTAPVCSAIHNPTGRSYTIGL
Chain of PRMT5/MEP50 (Q9BQA1 whole entry partner): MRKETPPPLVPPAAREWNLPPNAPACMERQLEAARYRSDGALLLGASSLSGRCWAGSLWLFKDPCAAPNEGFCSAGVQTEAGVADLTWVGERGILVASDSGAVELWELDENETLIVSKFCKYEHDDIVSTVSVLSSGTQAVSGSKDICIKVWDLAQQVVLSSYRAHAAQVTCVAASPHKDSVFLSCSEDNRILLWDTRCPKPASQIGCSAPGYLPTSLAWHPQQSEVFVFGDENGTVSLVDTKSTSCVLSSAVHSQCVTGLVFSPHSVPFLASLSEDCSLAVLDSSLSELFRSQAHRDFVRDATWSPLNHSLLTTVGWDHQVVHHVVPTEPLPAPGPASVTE

Chain of PRMT9 (Q6P2P2 whole entry): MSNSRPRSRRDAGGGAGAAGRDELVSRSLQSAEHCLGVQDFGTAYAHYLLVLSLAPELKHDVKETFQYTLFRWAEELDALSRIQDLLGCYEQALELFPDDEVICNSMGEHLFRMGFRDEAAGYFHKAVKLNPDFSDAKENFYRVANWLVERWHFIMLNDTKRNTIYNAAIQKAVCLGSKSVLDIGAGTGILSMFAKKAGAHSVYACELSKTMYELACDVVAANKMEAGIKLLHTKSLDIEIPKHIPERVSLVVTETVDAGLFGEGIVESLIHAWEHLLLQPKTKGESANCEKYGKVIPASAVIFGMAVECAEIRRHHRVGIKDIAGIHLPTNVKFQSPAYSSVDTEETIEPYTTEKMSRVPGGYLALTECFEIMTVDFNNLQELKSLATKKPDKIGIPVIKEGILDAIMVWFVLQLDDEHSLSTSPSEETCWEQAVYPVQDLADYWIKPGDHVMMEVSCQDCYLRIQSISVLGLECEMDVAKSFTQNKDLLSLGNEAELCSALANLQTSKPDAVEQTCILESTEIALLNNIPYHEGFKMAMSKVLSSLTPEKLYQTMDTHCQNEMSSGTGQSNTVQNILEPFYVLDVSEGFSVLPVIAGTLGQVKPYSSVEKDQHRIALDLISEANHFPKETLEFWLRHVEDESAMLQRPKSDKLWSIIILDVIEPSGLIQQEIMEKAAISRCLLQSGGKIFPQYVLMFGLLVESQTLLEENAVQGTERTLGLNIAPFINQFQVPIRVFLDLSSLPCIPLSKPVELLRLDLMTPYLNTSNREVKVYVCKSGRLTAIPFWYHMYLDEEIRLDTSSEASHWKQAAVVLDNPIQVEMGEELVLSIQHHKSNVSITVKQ

CCOCC1(COCC)CCC(c2n[nH]cc2CN(C)CCNC)CC1 [Compound A]
% Cytotoxic (cell lines with negative Ymin−T0) [1]: 0% | % gIC100 < 2 μM (of cell lines) [1]: 0% | % Cytotoxic (cell lines with negative Ymin−T0) (Breast cancer cell lines; 6-day, Breast, 29 cell lines): 10% | % gIC100 < 2 μM (of cell lines) (Breast cancer cell lines; 6-day, Breast, 29 cell lines): 0% | Median gIC100 (Breast cancer cell lines; 6-day, Breast, 29 cell lines): 29.36 µM | Median % Ymin − T0 (Breast cancer cell lines; Breast, MTAP High): 174% | Median gIC100 (Breast cancer cell lines; Breast, MTAP High): 29.4 µM | Median % Ymin − T0 (Breast cancer cell lines; Breast, MTAP Low): 188% | IC50 (Breast cancer cell lines; 144 h, read-out: median gIC50, 6-day, TNBC cell lines): 3.6 µM | IC50 (Breast cancer cell lines; 144 h, read-out: median gIC50, 6-day, non-TNBC cell lines): 6.8 µM | IC50 (Breast cancer cell lines; read-out: Median gIC50, Breast, MTAP High): 4.9 µM | IC50 (Breast cancer cell lines; read-out: Median gIC50, Breast, MTAP Low): 10.2 µM | Body weight Difference (vs. vehicle) ([2]; second study, 37.5 mg/kg QD oral, Day 25): −5% | Body weight Difference (vs. vehicle) ([2]; second study, 75 mg/kg BID oral, Day 25): −4% | Body weight Difference (vs. vehicle) ([2]; second study, 75 mg/kg QD oral, Day 25): −5% | Body weight Difference (vs. vehicle) ([2]; second study, 150 mg/kg QD oral, Day 25): −7% | Body weight Difference (vs. vehicle) ([2]; 150 mg/kg QD oral, Day 28): −4% | Body weight Difference (vs. vehicle) ([2]; 300 mg/kg QD oral, Day 28): −3% | Body weight Difference (vs. vehicle) ([2]; 450 mg/kg QD oral, Day 28): −8% | Body weight Difference (vs. vehicle) ([2]; 600 mg/kg QD oral, Day 28): −7% | body weight loss ([2]; Toledo, any dose group): No significant body weight loss | % Cytotoxic (cell lines with negative Ymin−T0) (Lymphoma cell lines; 6-day, Lymphoma, 59 cell lines): 54% | % gIC100 < 2 μM (of cell lines) (Lymphoma cell lines; 6-day, Lymphoma, 59 cell lines): 14% | IC50 (Lymphoma cell lines; MTAP High): 0.6 µM | IC50 (Lymphoma cell lines; MTAP Low): 0.1 µM | Median % Ymin − T0 (Lymphoma cell lines; Lymphoma, MTAP High): 17% | Median gIC100 (Lymphoma cell lines; Lymphoma, MTAP High): 24.4 µM | Median % Ymin − T0 (Lymphoma cell lines; Lymphoma, MTAP Low): −89% | Median gIC100 (Lymphoma cell lines; Lymphoma, MTAP Low): 5.3 µM | Compound A concentrations giving accumulation of cells in sub-G1 (Toledo; beginning after 3 days of treatment): ≥ 1000 nM | Compound A concentrations giving increase in the sub-G1 population (Toledo; by day 7): ≥ 100 nM | Compound A concentration at which sub-G1 effect was evident (U2932): 10 µM | Compound A concentration at which sub-G1 effect was evident (OCI-Ly1): 10 µM | inhibition of activity (PRMT9): failed to inhibit | inhibition of activity (PRMT5/MEP50): failed to inhibit
